From article PMC8175240, “Integrase-derived peptides together with CD24-targeted lentiviral particles inhibit the growth of CD24 expressing cancer cells” (Oncogene, 2021)
Converted amounts (≈) assume the structure as drawn. Residues, ends and D or L forms follow the SMILES beside them.

Tests used:
[1] = Solubility of IN-derived peptides in rat plasma; assay type: physicochemical; conditions: LC-MS
Experimental: (§1) Analytic HPLC-MS was performed using an Agilent 1260 series Liquid Chromatography/Mass Selective Detector (MSD) equipped with an electrospray interface and a UV diode array detector. Analyses were performed on an ACE C8, 50 × 3.0 mm, 3 µm column, with an isocratic 0.1% formic acid/ACN eluent, at a rate of 1 ml/min over a period of 5 min. UV absorption was measured at 280 nm, 220 nm, and 215–395 nm. MS analysis was performed with ESI (electron spray ionization) with a positive ionization method.
(§2) Four reaction systems were prepared; INS and INR2 in human plasma, INS and INR2 in rat plasma (Supplementary Table 2). Freshly prepared 10 mg/ml stock solution of the peptides was injected into plasma or PBS solution (1:1). The mixture was diluted with methanol to precipitate the plasma proteins. The samples were filtered through PTFE 0.45 µm filters and run in LC-MS. Samples were taken at the following times: 0, 15, 30, 60, 120, 240, and 480 min and after 24 h.
(§3) Plasma solubility was determined at 0 min and was verified at 60 min (if no degradation was observed).

[2] = Solubility of IN-derived peptides in PBS; assay type: physicochemical; conditions: for Solubility: at 0 min, verified at 60 min, LC-MS
Experimental: as §1, §2, §3

[3] = Stability test in rat plasma; assay type: in vitro ADME; conditions: for Analyte Remaining %: 10 mg/ml stock into plasma 1:1, LC-MS; for Concentration calculated from LC-MS data: 10 mg/ml stock into plasma 1:1, methanol precipitation, 0.45 µm filtration
Experimental: as §1, §2

SD rats = test: 28-day repeated dose toxicity study; assay type: in vivo, rat; conditions: slow IV bolus twice weekly for 4 weeks, 4 weeks recovery; male and female SD rats; highest dose tested
Experimental: Four weeks of repeated dosing followed by four weeks of recovery was performed in female and male SD rats, via slow IV bolus of the INS peptide. Eighty rats (40 males and 40 females) were utilized for the main study groups (n = 10 per study group). An additional 40 animals (20 males and 20 females) were used as recovery groups (n = 5 per study group). Group allocation was done without investigator blinding. Study evaluations included: mortality and morbidity, body weight, food consumption, clinical signs, ophthalmological observation, blood collection for hematology, clinical chemistry, coagulation, urine analysis, necropsy, and gross pathology, organ weight, and histopathology. The study was approved by the Institutional Review Board of Tel Aviv Sourasky Medical Center.

Work on `CC[C@H](C)[C@H](NC(=O)[C@H](Cc1ccccc1)NC(=O)[C@@H](NC(=O)[C@H](C)NC(=O)[C@H](CCSC)NC(=O)[C@H](CCC(N)=O)NC(=O)[C@@H](NC(=O)[C@H](C)NC(=O)[C@@H](NC(=O)[C@@H](N)Cc1c[nH]c2ccccc12)[C@@H](C)O)C(C)C)C(C)C)C(=O)N[C@@H](Cc1c[nH]cn1)C(=O)N[C@@H](CC(N)=O)C(=O)N[C@@H](Cc1ccccc1)C(=O)N[C@@H](CCCCN)C(=O)N[C@@H](CCCNC(=N)N)C(=O)N[C@@H](CCCCN)C(=O)O` [INS] (H-WTAVQMAVFIHNFKRK-OH) yielded a Solubility ([1]; % of 5 mg/mL sample) of 80.2%, a Solubility ([1]; from 5 mg/mL sample (10 mg/ml stock into plasma 1:1), at 0 min, verified at 60 min, methanol precipitation, PTFE 0.45 µm filtration) of 4.01 mg/mL (≈ 2030 µM) and a Solubility ([2]; % of 5 mg/mL sample) of 89.2%. For the same compound, the Solubility ([2]; from 5 mg/mL sample (10 mg/ml stock into PBS 1:1), methanol dilution, PTFE 0.45 µm filtration) was 4.46 mg/mL (≈ 2260 µM), the “Solubility (in words)” value ([2]; rat and human plasma) was “highly soluble” and the “Analyte Remaining %” value ([3]; 0 h) was 80.3%. The “Concentration calculated from LC-MS data” value ([3]; 0 h) was 4010 µg/mL, the “Analyte Remaining %” value ([3]; 0.25 h) was 68.2% and the “Concentration calculated from LC-MS data” value ([3]; 0.25 h) was 3410 µg/mL. For the same compound, the “Analyte Remaining %” value ([3]; 0.5 h) was 65.3%, the “Concentration calculated from LC-MS data” value ([3]; 0.5 h) was 3260 µg/mL and the “Analyte Remaining %” value ([3]; 1 h) was 58.9%. The “Concentration calculated from LC-MS data” value ([3]; 1 h) was 2940 µg/mL, the “Analyte Remaining %” value ([3]; 2 h) was 50.5% and the “Concentration calculated from LC-MS data” value ([3]; 2 h) was 2530 µg/mL. The “Analyte Remaining %” value ([3]; 4 h) was 38.6%, the “Concentration calculated from LC-MS data” value ([3]; 4 h) was 1930 µg/mL and the “Analyte Remaining %” value ([3]; 8 h) was 36.1%. For the same compound, the “Concentration calculated from LC-MS data” value ([3]; 8 h) was 1800 µg/mL, the “Analyte Remaining %” value ([3]; 24 h) was 14.8% and the “Concentration calculated from LC-MS data” value ([3]; 24 h) was 740 µg/mL. The “no-observed-adverse-effect level (NOAEL)” value (SD rats) was 7.5 mg/kg.
